Results published in patent publication US20190343908A1, “Therapeutic Combination for the Treatment of Cancer” (Nerium Biotechnology Inc., priority 2011, published 2019).

Assays:
[1] = tested on: COR-L 105 (non-small cell lung carcinoma); test: Crystal Violet viability assay, COR-L 105; type: cell-based, human; set-up: key to CVE Average: absorbance at 570 nm (crystal violet), background wavelength subtracted; conditions: for CVE Average 24 h / CVE Average 48 h / CVE Average 72 h: COR-L 105, Run 3
From the text: (§1) Three different viability assays were chosen to complement each other and yielded results dependent on concentration and cell line: the Methyl Tetrazolium dye assay, the Sulforhodamine B fluorescent dye assay, and the Crystal Violet dye assay.
The Sulforhodamine B and Crystal Violet assays provide information about protein and were used to complement the Methyl-Tetrazolium dye assay. […] It is used for the quantification of cellular proteins of cultured cells. The assay using Crystal Violet, a dye that binds electrostatically to proteins and stains DNA, provides a reliable, simple assay for measuring viability of cells.
(§2) The Methyl Tetrazolium, Sulforhodamine B, and Crystal Violet assays were used to assess cell viabilities. The incubation times were 24 hours, 48 hours, and 72 hours. The Nerium oleander extract Anvirzel™ (a hot water extract of oleander obtained from Salud Integral, Honduras) was tested in concentrations ranging from 0.01 ng/mL to 10 ng/mL.
(§3) Cells were detached by trypsinization (Trypsin-0.25% EDTA, Invitrogen, 25200-072) during the logarithmic phase of culture growth and plated in 96-well plates (18.000 cells/well) (Corning, Costar 359) in a final volume of 200 μl of medium per well. […] The absorbance was measured after 24 hours, 48 hours, and 72 hours of incubation.
For the Crystal Violet assay, the medium was removed from the 96-well plates, the plates rinsed with PBS (Sigma, P3813) and then the cells were […] by the addition of 10% formalin (MERCK, 1.04003.2500) for 20 minutes at RT. Formalin was removed and 0.25% aqueous crystal violet (Sigma, HT901), dissolved in water, was added for 10 minutes at RT. Unbound Crystal Violet was rinsed by washing with water and finally 33% acetic acid was added to dissolve the dye.
(§4) The optical density of each plate was measured on a μQuant spectrophotometer and the data were analyzed with Gen5 software (μQuant Biomolecular Spectrophotometer MQX200 and Gen5™ Microplate Data Collection & Analysis software, BioTek® Instruments. Inc, April 2008). Absorbance was measured at 570 nm for all assays and a second wavelength was measured in order to subtract noise. For the Methyl-Tetrazolium assay this second wavelength was 630 nm and for the Sulforhodamine B and Crystal Violet assays it was 690 nm.

[2] = tested on: MDA-MB 231 (human breast cancer); test: Methyl-Tetrazolium viability assay, MDA-MB 231; type: cell-based; conditions: for MTT 24 h / MTT 48 h / MTT 72 h: Run 3 average
From the text: as §1
The Methyl-Tetrazolium dye assay measures the activity of enzymes in mitochondria. The dye precursor is taken up by cells, where it undergoes reduction to the purple formazan. It measures only the mitochondrial activity and, thus, it is not always a reliable indication of whether the cells themselves are alive or dead, since even a recently dead cell has […] enzyme activity in mitochondria. Intracellular glucose concentration, pH, and time before assay all affect the measurements.
as §2, §3
For the Methyl-Tetrazolium assay, the dye (Sigma, M2128; 5 mg/mL, diluted in phosphate-buffered saline) was added to each well and plates were incubated for 3 hours at 37° C. After the end of the incubation period, the medium was discarded and the cells were rinsed with phosphate-buffered saline. Finally, the formazan crystals were dissolved in dimethylsulphoxide (Sigma, D4540).
as §4

## N.N.[Cl][Pt][Cl] [cisplatin]
[1]; 0.1 μg/ml CDDP
  CVE Average 24 h: 0.388
  CVE Average 48 h: 0.709
  CVE Average 72 h: 0.457
[1]; 1 μg/ml CDDP
  CVE Average 24 h: 0.363
  CVE Average 48 h: 0.517
  CVE Average 72 h: 0.263
[1]; 10 μg/ml CDDP
  CVE Average 24 h: 0.358
  CVE Average 48 h: 0.653
  CVE Average 72 h: 0.387
[1]; 100 μg/ml CDDP
  CVE Average 24 h: 0.282
  CVE Average 48 h: 0.341
  CVE Average 72 h: 0.389
[1]; Run 1, 24 h, 0.1 μg/ml CDDP
  CVE Average: 0.413
[1]; Run 1, 24 h, 1 μg/ml CDDP
  CVE Average: 0.431
[1]; Run 1, 24 h, 10 μg/ml CDDP
  CVE Average: 0.484
[1]; Run 1, 24 h, 100 μg/ml CDDP
  CVE Average: 0.307
[1]; Run 1, 48 h, 0.1 μg/ml CDDP
  CVE Average: 0.599
[1]; Run 1, 48 h, 1 μg/ml CDDP
  CVE Average: 0.643
[1]; Run 1, 48 h, 10 μg/ml CDDP
  CVE Average: 0.632
[1]; Run 1, 48 h, 100 μg/ml CDDP
  CVE Average: 0.379
[1]; Run 1, 72 h, 0.1 μg/ml CDDP
  CVE Average: 0.298
[1]; Run 1, 72 h, 1 μg/ml CDDP
  CVE Average: 0.23
[1]; Run 1, 72 h, 10 μg/ml CDDP
  CVE Average: 0.216
[1]; Run 1, 72 h, 100 μg/ml CDDP
  CVE Average: 0.244
[1]; Run 2, 24 h, 0.1 μg/ml CDDP
  CVE Average: 0.388
[1]; Run 2, 24 h, 1 μg/ml CDDP
  CVE Average: 0.363
[1]; Run 2, 24 h, 10 μg/ml CDDP
  CVE Average: 0.358
[1]; Run 2, 24 h, 100 μg/ml CDDP
  CVE Average: 0.282
[1]; Run 2, 48 h, 0.1 μg/ml CDDP
  CVE Average: 0.709
[1]; Run 2, 48 h, 1 μg/ml CDDP
  CVE Average: 0.517
[1]; Run 2, 48 h, 10 μg/ml CDDP
  CVE Average: 0.653
[1]; Run 2, 48 h, 100 μg/ml CDDP
  CVE Average: 0.341
[1]; Run 2, 72 h, 0.1 μg/ml CDDP
  CVE Average: 0.457
[1]; Run 2, 72 h, 1 μg/ml CDDP
  CVE Average: 0.263
[1]; Run 2, 72 h, 10 μg/ml CDDP
  CVE Average: 0.387
[1]; Run 2, 72 h, 100 μg/ml CDDP
  CVE Average: 0.389
[2]; Run 1, 0.1 μg/ml CDDP
  MTT 24 h Average: 0.019
  MTT 48 h Average: 0.002
  MTT 72 h Average: 0.04
[2]; Run 1, 1 μg/ml CDDP
  MTT 24 h Average: 0.007
  MTT 48 h Average: 0.004
  MTT 72 h Average: 0.006
[2]; Run 1, 10 μg/ml CDDP
  MTT 24 h Average: 0.015
  MTT 48 h Average: 0.007
  MTT 72 h Average: 0.015
[2]; Run 1, 100 μg/ml CDDP
  MTT 24 h Average: 0.008
  MTT 48 h Average: 0.008
  MTT 72 h Average: 0.006
[2]; Run 2, 0.1 μg/ml CDDP
  MTT 24 h Average: 0.044
  MTT 48 h Average: 0.063
  MTT 72 h Average: 0.106
[2]; Run 2, 1 μg/ml CDDP
  MTT 24 h Average: 0.009
  MTT 48 h Average: 0.007
  MTT 72 h Average: 0.005
[2]; Run 2, 10 μg/ml CDDP
  MTT 24 h Average: 0.039
  MTT 48 h Average: 0.049
  MTT 72 h Average: 0.07
[2]; Run 2, 100 μg/ml CDDP
  MTT 24 h Average: 0.008
  MTT 48 h Average: 0.006
  MTT 72 h Average: 0.002
[2]; 0.1 μg/ml CDDP
  MTT 24 h: 0.083
  MTT 48 h: 0.035
  MTT 72 h: 0.046
[2]; 1 μg/ml CDDP
  MTT 24 h: 0.013
  MTT 48 h: 0.008
  MTT 72 h: 0.008
[2]; 10 μg/ml CDDP
  MTT 24 h: 0.046
  MTT 48 h: 0.057
  MTT 72 h: 0.068
[2]; 100 μg/ml CDDP
  MTT 24 h: 0.012
  MTT 48 h: 0.012
  MTT 72 h: 0.01
